Measurements reported in ChEMBL document CHEMBL1201862, “PubChem BioAssay data set” (2004).
Where “and” joins values, the source holds several entries; their conditions need not be identical. Equal values may be shown once. Calls of active or inactive are those of the source.

What was measured:
[1] = molecular target: T1, CAAX prenyl protease 2 (Homo sapiens, UniProt Q9Y256); experiment: inhibition of Ras-converting CAAX protease Rce1 – biochemical, yeast membranes, quenched-peptide fluorescence, cherry-pick, dose response (AID 588849)
T1 sequence (Q9Y256 whole entry): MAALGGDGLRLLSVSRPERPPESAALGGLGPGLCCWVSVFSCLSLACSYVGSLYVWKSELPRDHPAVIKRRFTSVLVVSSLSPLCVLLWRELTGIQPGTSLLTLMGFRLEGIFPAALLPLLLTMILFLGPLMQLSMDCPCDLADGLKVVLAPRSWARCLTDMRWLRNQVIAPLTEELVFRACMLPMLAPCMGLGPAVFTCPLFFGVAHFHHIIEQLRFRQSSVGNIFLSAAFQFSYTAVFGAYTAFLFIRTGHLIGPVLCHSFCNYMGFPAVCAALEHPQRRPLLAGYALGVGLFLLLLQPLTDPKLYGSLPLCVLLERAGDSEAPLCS

[2] = tested on: HEK293; experiment: membrane integrity loss in HEK cells – cell-based, fluorescence, cytotoxicity control for IDE activator project, dose response (AID 588440); type: functional; details: Homo sapiens;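 note: cytotoxicity by LDH release measuring loss of membrane integrity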
[3] = tested on: HEK293; experiment: optical interference in Abeta FP readout, dose response, artefact control for IDE activator project, biochemical, fluorescence polarization (AID 588442); type: functional, cell-based; details: Homo sapiens
[4] = molecular target: T2, Insulin-degrading enzyme (Homo sapiens, UniProt P14735); experiment: cellular IDE activation of Abeta substrate cleavage – fluorescence polarization, HEK cells, dose response (AID 588439); type: functional, cell-based
T2 sequence (P14735 whole entry): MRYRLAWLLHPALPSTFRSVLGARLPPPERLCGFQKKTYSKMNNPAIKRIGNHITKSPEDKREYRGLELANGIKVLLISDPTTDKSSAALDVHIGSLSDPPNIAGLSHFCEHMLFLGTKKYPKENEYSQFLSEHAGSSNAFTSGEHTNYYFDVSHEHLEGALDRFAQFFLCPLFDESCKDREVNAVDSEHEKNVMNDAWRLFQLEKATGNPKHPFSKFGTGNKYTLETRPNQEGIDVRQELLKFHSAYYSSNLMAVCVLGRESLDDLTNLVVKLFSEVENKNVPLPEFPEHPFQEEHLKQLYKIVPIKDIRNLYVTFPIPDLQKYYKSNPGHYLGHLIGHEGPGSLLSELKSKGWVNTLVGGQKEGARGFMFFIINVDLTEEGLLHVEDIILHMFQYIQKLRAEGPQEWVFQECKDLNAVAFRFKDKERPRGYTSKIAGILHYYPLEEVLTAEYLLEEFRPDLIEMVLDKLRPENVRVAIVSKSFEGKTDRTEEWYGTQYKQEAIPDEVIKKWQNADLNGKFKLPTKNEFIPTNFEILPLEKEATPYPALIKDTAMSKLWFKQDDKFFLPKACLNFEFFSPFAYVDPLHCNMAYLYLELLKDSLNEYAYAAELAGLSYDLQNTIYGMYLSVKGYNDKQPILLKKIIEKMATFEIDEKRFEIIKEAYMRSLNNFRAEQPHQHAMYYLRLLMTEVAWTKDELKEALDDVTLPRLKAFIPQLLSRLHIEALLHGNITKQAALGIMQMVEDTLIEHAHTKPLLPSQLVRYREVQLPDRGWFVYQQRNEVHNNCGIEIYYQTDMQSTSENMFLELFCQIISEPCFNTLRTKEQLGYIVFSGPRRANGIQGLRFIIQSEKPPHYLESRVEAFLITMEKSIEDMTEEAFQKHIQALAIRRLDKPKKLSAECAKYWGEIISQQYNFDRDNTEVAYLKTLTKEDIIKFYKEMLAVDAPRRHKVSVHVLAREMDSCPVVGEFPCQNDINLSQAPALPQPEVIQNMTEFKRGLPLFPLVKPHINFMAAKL

[5] = molecular target: T2, Insulin-degrading enzyme; experiment: recombinant IDE activation, cell-free – biochemical, fluorescence polarization, counter-screen for IDE activator project, dose response (AID 588681)
[6] = molecular target: Protein disulfide-isomerase (Homo sapiens, UniProt P07237); experiment: inhibition of PDI-driven insulin aggregation – biochemical, turbidity, absorbance, cherry-picked samples, dose response (AID 602350); type: functional
[7] = molecular target: T3, Ubiquitin-conjugating enzyme E2 N (Homo sapiens, UniProt P61088); type: functional
T3 sequence (P61088 whole entry): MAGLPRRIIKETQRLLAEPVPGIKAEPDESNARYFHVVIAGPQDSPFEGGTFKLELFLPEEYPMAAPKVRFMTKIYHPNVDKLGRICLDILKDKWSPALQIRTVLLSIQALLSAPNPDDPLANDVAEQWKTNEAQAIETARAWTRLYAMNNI

[8] = molecular target: T4, Bcl-2-related protein A1 (Mus musculus, UniProt Q07440); type: functional;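 note: confirmatory dose–response counterscreen on Bfl-1, used to check hits from a UBC13 polyubiquitin inhibitor campaign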
T4 sequence (Q07440 whole entry): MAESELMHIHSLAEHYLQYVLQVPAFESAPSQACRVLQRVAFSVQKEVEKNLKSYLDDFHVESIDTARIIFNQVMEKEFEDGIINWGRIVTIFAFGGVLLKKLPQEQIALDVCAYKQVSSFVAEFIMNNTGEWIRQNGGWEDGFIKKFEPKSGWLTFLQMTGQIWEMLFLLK

[9] = molecular target: T3, Ubiquitin-conjugating enzyme E2 N; type: functional; remark: listed apart in the source
[10] = molecular target: Beta-2 adrenergic receptor (Homo sapiens, UniProt P07550); experiment: ADRB2 activation measured by internalization – cell-based, FAP fluorogen, flow cytometry, cherry pick 1, dose response (AID 588763); type: functional
[11] = tested on: Vero; experiment: viability of Vero cells under compound – cytotoxicity control for flavivirus capping enzyme inhibitors (AID 588742); type: functional; details: Chlorocebus sabaeus
[12] = molecular target: Genome polyprotein (dengue virus type 2, UniProt P29990); experiment: flavivirus cap methylation enzyme inhibition – biochemical, confirmation dose response, primary screen (AID 588689); type: functional
[13] = Trypanosoma cruzi growth suppression in host cells – NIH3T3 host cells, beta-gal luminescence, confirmation (AID 2044); type: functional, cell-based;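 note: intracellular parasites grown in NIH/3T3 mouse fibroblasts as host cells; luminescent beta-galactosidase reporter signal from transgenic T. cruzi replicating inside host cells; inhibitors lower the luminescence signal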
[14] = NIH3T3 cell viability loss – ATP luminescence, mouse fibroblasts, counter-screen, dose response (AID 2010); type: functional, cell-based;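 note: cells exposed to compound for about 90 hours before reading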
[15] = Luminescence Cell-Based Dose Response HTS to Identify Activators of Luciferase Translation or Activity in H4 […] Cells. [Related pubchem assays: 1829 (Project Summary), 1814 (Primary HTS)]; type: functional
[16] = tested on: H4; experiment: Luminescence Cell-Based Dose Response HTS to Identify Activators of 5'UTR Stem-Loop Driven Prion Protein mRNA Translation in H4 Neuroglioblastoma Cells. [Related pubchem assays: 1829 (Project Summary), 1814 (Primary HTS)]; type: functional; details: Homo sapiens
[17] = molecular target: T5, Protein RecA (Mycobacterium tuberculosis, UniProt P9WHJ3); experiment: Fluorescence Cell-Free Homogeneous Dose Retest to Identify Inhibitors of RecA-Intein Splicing Activity. [Related pubchem assays (depositor defined):AID2097, AID2223, AID489010, AID492950]; type: functional
T5 sequence (P9WHJ3 whole entry): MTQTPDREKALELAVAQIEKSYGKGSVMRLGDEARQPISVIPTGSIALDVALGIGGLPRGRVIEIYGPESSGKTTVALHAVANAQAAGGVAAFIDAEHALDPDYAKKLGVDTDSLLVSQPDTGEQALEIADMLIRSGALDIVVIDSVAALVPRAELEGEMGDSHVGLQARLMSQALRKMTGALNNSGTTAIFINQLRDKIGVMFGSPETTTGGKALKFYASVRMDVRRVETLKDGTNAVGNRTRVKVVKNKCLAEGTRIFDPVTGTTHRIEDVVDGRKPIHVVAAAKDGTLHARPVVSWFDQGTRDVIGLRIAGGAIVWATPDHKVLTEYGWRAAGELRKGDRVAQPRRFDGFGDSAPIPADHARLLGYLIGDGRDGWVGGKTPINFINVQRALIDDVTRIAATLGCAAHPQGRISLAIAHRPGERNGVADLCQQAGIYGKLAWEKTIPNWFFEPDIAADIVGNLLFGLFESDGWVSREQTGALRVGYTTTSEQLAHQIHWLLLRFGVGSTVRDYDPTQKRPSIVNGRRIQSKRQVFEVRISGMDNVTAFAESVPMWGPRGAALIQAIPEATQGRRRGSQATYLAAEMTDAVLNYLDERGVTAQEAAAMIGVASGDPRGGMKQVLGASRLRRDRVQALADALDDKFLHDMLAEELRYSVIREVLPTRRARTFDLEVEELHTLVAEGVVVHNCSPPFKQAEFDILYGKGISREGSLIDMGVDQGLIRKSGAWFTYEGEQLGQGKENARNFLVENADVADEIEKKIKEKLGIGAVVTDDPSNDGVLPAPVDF

[18] = molecular target: T6, CAAX prenyl protease 2 (Saccharomyces cerevisiae S288c, UniProt Q03530); type: biochemical
T6 sequence (Q03530 whole entry): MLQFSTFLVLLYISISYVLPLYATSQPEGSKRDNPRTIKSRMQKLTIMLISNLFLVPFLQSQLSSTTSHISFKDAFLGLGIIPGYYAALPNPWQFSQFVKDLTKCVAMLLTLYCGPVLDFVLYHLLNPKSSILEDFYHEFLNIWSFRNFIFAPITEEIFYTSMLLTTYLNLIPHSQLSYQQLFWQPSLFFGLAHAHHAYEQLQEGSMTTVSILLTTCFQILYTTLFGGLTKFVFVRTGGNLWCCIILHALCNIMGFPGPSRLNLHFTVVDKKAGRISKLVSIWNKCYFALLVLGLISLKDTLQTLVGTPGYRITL

[19] = molecular target: T7, Caspase-6 (Homo sapiens, UniProt P55212); experiment: inhibition of CASP6 peptide cleavage – biochemical, VEID-R110 fluorescence, cherry-pick, dose response (AID 720632)
T7 sequence (P55212 whole entry): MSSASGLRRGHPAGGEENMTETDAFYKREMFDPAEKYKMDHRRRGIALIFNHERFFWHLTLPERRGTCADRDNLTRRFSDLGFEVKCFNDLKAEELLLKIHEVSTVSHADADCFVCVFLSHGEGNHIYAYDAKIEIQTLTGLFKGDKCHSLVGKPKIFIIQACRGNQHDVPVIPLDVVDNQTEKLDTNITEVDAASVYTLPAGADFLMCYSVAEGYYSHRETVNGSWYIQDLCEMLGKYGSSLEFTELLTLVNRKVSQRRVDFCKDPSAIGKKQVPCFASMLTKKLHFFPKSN

[20] = Luminescence Cell-Based Dose Confirmation HTS to Identify Activators of 5'UTR Stem-Loop Driven Alpha-Synuclein mRNA Translation in H4 Neuroglioblastoma Cells. [Related pubchem assays: 1829 (Project Summary), 1814 (Primary HTS)]; type: functional
[21] = molecular target: Melanin-concentrating hormone receptor 1 (Homo sapiens, UniProt Q99705); experiment: Late-stage fluorescence-based counterscreen for antagonists of the G-protein coupled receptor 7 (GPR7): cell-based dose response assay to identify antagonists of the melanin-concentrating hormone receptor 1 (MCHR1) Set 5.; type: functional
Melanin-concentrating hormone receptor 1, sequence (Q99705 whole entry): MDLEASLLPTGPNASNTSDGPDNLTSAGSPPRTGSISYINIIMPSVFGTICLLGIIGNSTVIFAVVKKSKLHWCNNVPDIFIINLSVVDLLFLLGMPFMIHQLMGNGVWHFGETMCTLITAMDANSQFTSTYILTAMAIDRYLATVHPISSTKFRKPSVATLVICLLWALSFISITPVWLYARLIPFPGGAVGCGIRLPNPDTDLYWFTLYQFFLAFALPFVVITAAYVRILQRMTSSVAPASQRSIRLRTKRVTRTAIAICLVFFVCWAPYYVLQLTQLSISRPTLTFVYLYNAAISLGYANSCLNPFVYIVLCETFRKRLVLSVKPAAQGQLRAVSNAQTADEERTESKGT

Protein disulfide-isomerase, sequence (P07237 whole entry): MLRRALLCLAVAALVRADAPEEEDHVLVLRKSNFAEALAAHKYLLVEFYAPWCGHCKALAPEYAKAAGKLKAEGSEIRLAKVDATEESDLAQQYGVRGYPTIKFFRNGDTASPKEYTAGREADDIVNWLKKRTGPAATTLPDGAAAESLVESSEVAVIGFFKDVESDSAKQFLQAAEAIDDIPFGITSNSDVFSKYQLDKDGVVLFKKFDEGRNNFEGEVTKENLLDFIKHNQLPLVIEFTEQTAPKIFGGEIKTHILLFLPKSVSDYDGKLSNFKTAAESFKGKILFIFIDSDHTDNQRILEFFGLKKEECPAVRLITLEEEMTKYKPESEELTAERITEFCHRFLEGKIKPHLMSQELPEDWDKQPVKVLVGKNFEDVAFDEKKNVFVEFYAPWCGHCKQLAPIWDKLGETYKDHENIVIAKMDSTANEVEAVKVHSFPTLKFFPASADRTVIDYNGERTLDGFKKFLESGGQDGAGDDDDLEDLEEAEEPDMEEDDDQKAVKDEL
Beta-2 adrenergic receptor, sequence (P07550 whole entry): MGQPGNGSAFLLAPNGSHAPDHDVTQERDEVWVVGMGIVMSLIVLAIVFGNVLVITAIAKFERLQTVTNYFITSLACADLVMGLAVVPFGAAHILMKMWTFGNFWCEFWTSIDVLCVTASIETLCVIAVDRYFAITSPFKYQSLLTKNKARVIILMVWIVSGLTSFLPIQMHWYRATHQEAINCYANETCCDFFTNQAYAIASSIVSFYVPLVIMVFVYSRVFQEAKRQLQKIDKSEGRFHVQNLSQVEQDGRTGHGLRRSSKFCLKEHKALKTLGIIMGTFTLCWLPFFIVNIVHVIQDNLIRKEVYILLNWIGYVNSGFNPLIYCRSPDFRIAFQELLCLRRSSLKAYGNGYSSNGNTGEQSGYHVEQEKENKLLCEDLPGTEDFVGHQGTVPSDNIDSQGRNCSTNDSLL
Genome polyprotein, sequence (P29990 2492-3391 limits assumed): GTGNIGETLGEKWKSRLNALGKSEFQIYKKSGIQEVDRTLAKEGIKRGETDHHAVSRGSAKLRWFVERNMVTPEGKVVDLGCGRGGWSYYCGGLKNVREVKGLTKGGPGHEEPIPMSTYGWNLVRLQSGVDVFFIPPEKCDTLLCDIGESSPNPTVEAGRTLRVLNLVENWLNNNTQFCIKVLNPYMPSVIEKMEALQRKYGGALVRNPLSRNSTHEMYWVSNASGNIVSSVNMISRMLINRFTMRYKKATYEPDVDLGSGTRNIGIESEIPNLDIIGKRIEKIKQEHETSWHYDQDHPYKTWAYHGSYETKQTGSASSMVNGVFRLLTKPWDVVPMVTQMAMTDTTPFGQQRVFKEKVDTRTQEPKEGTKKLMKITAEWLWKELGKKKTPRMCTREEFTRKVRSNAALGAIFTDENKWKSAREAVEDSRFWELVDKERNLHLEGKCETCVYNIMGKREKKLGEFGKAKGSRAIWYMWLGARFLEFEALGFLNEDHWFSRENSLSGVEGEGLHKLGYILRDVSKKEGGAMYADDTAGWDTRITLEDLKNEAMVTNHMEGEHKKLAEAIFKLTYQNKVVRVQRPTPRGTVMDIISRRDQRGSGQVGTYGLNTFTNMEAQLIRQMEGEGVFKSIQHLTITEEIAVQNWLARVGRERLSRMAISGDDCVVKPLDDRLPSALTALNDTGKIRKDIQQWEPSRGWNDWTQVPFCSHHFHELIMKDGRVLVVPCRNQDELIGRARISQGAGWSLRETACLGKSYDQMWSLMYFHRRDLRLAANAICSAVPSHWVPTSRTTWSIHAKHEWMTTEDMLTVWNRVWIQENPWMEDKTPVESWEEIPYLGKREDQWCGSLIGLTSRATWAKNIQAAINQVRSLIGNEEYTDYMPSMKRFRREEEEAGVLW

CCSc1nc(O)c2c(n1)N=C1CC(C)(C)CC(O)=C1C2c1ccccn1 (configuration not stated)
AC50 [1]: 9.79 µM (active)

O=C1C=C(c2ccc(-c3ccccc3)cc2)C[C@@H](c2ccc3c(c2)OCO3)C1
IC50 [2]: > 89.2 µM (inactive)
EC50 [3]: > 54.7 µM (inactive)
EC50 [4]: > 54.7 µM (inactive)
EC50 [5]: > 54.7 µM (inactive)

CNC(=S)N(Cc1cccs1)Cc1cc2cc(OC)ccc2nc1O
IC50 [2]: > 89.3 µM (inactive)
EC50 [3]: > 54.7 µM (inactive)
EC50 [4]: > 54.7 µM (inactive)
EC50 [5]: > 54.7 µM (inactive)

Cc1nnc(O)c2c(NC(=O)CSc3nnnn3-c3ccc(O)cc3)oc(C)c12
AC50 [6]: 19.5 µM (active)

O=C1C(Cc2cnc[nH]2)NC(=S)N1c1ccccc1 (configuration not stated)
IC50 [7]: 4 µM (active)
IC50 [8]: > 20 µM (inactive)
IC50 [9]: 8.14 µM (active)

COc1cc2c(cc1Cl)C(=O)C(F)(c1ccccc1)C(=O)N2 (configuration not stated)
EC50 [10]: 7.03 µM (inactive)

Cc1cc(SCC(=O)NC(=O)c2cccn2C)nc2ccccc12
IC50 [7]: > 20 µM (inactive)
IC50 [8]: > 20 µM (inactive)
IC50 [9]: 17.4 µM (active)

CC(=O)C1=C(O)C(=O)N(c2cc(C(C)(C)C)on2)C1c1ccc(C(C)C)cc1 (configuration not stated)
CC50 [11]: > 40 µM (active)
IC50 [12]: 95.3 µM (active)

C=CCn1c(SCc2ccc(F)cc2)nnc1-c1sc2nc(C)cc(C)c2c1N
EC50 [13]: 0.423 µM (active)
EC50 [14]: > 60 µM (not active)
EC50 [10]: 0.029 µM (active)

Cc1ccc(C)c(S(=O)(=O)c2c[nH]c(=S)[nH]c2=O)c1
IC50 [7]: > 20 µM (inactive)
IC50 [8]: > 20 µM (inactive)
IC50 [9]: 14.3 µM (active)

O=C(c1ccc2c(c1)OCO2)N(Cc1cccs1)C1(C(=O)NC2CCCCC2)CCCCC1
CC50 [11]: > 40 µM (active)

Oc1nc(Nc2ccccn2)cc2ccccc12
EC50 [15]: 6.15 µM (active)
EC50 [16]: 36.8 µM (active)
EC50 [17]: > 380 µM (inactive)
AC50 [18]: > 100 µM (inactive)
AC50 [1]: 14 µM (active)
AC50 [19]: 5.89 µM (active)
EC50 [20]: 4 µM (active)

Cc1noc(C)c1S(=O)(=O)Nc1ccc2c(c1)CC(=O)N([C@H](C)CO)C[C@H](C)[C@H](CN(C)S(=O)(=O)c1ccc(F)cc1)O2
AC50 [6]: 16.9 µM (active) and 19.5 µM (active)

COc1ccc(Oc2c(Cl)cnn(CC(=O)N(c3ccccc3)c3ccccc3)c2=O)cc1
IC50 [21]: 10.7 µM (inactive)

C/C(CC(=O)N1CCCC1)=N\NC(=O)c1cc2ccccc2cc1O
CC50 [11]: 17.5 µM (active)
AC50 [19]: 1.88 µM (active)
